Measured values reported in ChEMBL document CHEMBL3044652, “Synthesis of novel 2-alkyl-4-substituted-amino-pyrazolo[3,4-d]pyrimidines as new leads for anti-bacterial and anti-cancer activity” (2013).

How the values were obtained:
Assay type in all cases: functional
Escherichia coli = assay: Antibacterial activity against Escherichia coli NCIM 2803 at 20 ug/ml after 24 hr by agar diffusion method; conditions: NCIM 2803, 24 h, read-out: IZ
Bacillus subtilis = assay: Antibacterial activity against Bacillus subtilis NCIM 2545 at 20 ug/ml after 24 hr by agar diffusion method; conditions: NCIM 2545, 24 h, read-out: IZ
Staphylococcus aureus = assay: Antibacterial activity against Staphylococcus aureus NCIM 5021 at 20 ug/ml after 24 hr by agar diffusion method; conditions: NCIM 5021, 24 h, read-out: IZ
[1] = system: Staphylococcus epidermidis; assay: Antibacterial activity against Staphylococcus epidermidis NCIM 2493 at 20 ug/ml after 24 hr by agar diffusion method; conditions: NCIM 2493, 24 h, read-out: IZ
G-361 [2] = assay: Cytotoxicity against Homo sapiens (human) G361 cells assessed as cell growth at 10^-7 M by SRB assay relative to control; conditions: read-out: Activity
G-361 [3] = assay: Cytotoxicity against Homo sapiens (human) G361 cells assessed as cell growth at 10^-6 M by SRB assay relative to control; conditions: read-out: Activity
G-361 [4] = assay: Cytotoxicity against Homo sapiens (human) G361 cells assessed as cell growth at 10^-5 M by SRB assay relative to control; conditions: read-out: Activity
G-361 [5] = assay: Cytotoxicity against Homo sapiens (human) G361 cells assessed as cell growth at 10^-4 M by SRB assay relative to control; conditions: read-out: Activity
G-361 [6] = assay: Cytotoxicity against Homo sapiens (human) G361 cells by SRB assay

Structure (SMILES)	zone of inhibition at 20 µg/mL (Escherichia coli)	zone of inhibition at 20 µg/mL (Bacillus subtilis)	zone of inhibition at 20 µg/mL (Staphylococcus aureus)	zone of inhibition at 20 µg/mL [1]	growth at 0.1 µM (G-361 [2])	growth at 1 µM (G-361 [3])	growth at 10 µM (G-361 [4])	growth at 100 µM (G-361 [5])	GI50 (G-361 [6])	LC50 (G-361 [6])	TGI (G-361 [6])
CCc1nc(N2CCOCC2)c2cnn(-c3ccccc3)c2n1	13 mm	13.3 mm	13 mm	13 mm	100%	85.5%	65.9%	30.9%	28 µM	> 100 µM	> 100 µM
CC(C)NCc1nc(NC(C)C)c2cnn(-c3ccccc3)c2n1	13 mm	13.6 mm	1.3 mm	1.33 mm	100%	100%	99.7%	56.5%	> 100 µM	> 100 µM	> 100 µM
CCCCNc1ncnc2c1cnn2-c1ccccc1	13.6 mm	13 mm	13.3 mm	13.3 mm	100%	90.8%	43.4%	-4.5%	2.1 µM	> 100 µM	37 µM
CCCNc1ncnc2c1cnn2-c1ccccc1	13.2 mm	13.2 mm	12.7 mm	13.3 mm	100%	100%	99.7%	64.8%	> 100 µM	> 100 µM	> 100 µM
c1ccc(-n2ncc3c(N4CCOCC4)nc(CN4CCOCC4)nc32)cc1	13.6 mm	13 mm	13.6 mm	13.3 mm	99.7%	99.6%	94.3%	47.6%	> 100 µM	> 100 µM	> 100 µM
Cc1nc(NCc2ccccc2)c2cnn(-c3ccccc3)c2n1	12.6 mm	13.3 mm	13.1 mm	12.7 mm	100%	100%	100%	45.5%	> 100 µM	> 100 µM	> 100 µM
CCc1nc(NCc2ccco2)c2cnn(-c3ccccc3)c2n1	12.7 mm	13.6 mm	13.3 mm	13.6 mm	100%	96.5%	86.3%	-61%	2.04 µM	> 100 µM	32 µM
CCNc1nc(C)nc2c1cnn2-c1ccccc1	13.4 mm	13.3 mm	13.3 mm	13.3 mm	100%	100%	99.6%	29.2%	38.7 µM	> 100 µM	> 100 µM
Cc1nc(NCc2ccco2)c2cnn(-c3ccccc3)c2n1	13.6 mm	12.5 mm	12.7 mm	13.3 mm	100%	100%	100%	30.1%	39 µM	> 100 µM	> 100 µM
CCCNc1nc(CC)nc2c1cnn2-c1ccccc1	13.6 mm	13 mm	13.3 mm	13.3 mm	100%	94.7%	84.7%	-34.7%	2.2 µM	> 100 µM	37 µM
CCCNCc1nc(NCCC)c2cnn(-c3ccccc3)c2n1	13.3 mm	13.6 mm	13.3 mm	13.3 mm	100%	99.6%	100%	75.1%	> 100 µM		> 100 µM
CCNCc1nc(NCC)c2cnn(-c3ccccc3)c2n1	13.3 mm	12.7 mm	12.6 mm	13.6 mm	100%	100%	100%	87.7%	> 100 µM	> 100 µM	> 100 µM
CC(C)Nc1ncnc2c1cnn2-c1ccccc1	13.3 mm	13.3 mm	13.6 mm	13.6 mm							
CC(C)c1nc(Nc2ccccc2)c2cnn(-c3ccccc3)c2n1	12.8 mm	13.5 mm	13.3 mm	13.3 mm	100%	100%	91.9%	19.2%	32 µM	> 100 µM	> 100 µM
c1ccc(NCc2nc(Nc3ccccc3)c3cnn(-c4ccccc4)c3n2)cc1	13.3 mm	13.6 mm	13.2 mm	13 mm	100%	100%	99.7%	48.5%	> 100 µM	> 100 µM	> 100 µM
COc1ccccc1Nc1nc(C)nc2c1cnn2-c1ccccc1	13.5 mm	13.4 mm	13.3 mm	13.6 mm							
c1ccc(-n2ncc3c(N4CCOCC4)ncnc32)cc1	13.3 mm	12.8 mm	13.6 mm	12.7 mm	100%	100%	100%	61.5%	> 100 µM	> 100 µM	> 100 µM
Cc1nc(N2CCOCC2)c2cnn(-c3ccccc3)c2n1	12.7 mm	13.6 mm	13.3 mm	13.6 mm	100%	100%	99.8%	43.9%	> 100 µM	> 100 µM	> 100 µM
CCc1nc(Nc2ccccc2)c2cnn(-c3ccccc3)c2n1	13.3 mm	13.3 mm	13.6 mm	13.6 mm							
Cc1nc(NC(C)C)c2cnn(-c3ccccc3)c2n1	13 mm	13.6 mm	13.3 mm	13.7 mm	100%	100%	100%	13.5%	32 µM	> 100 µM	> 100 µM
ClCc1nc(Cl)c2cnn(-c3ccccc3)c2n1					100%	100%	90.9%	-59.3%	2.08 µM	> 100 µM	33.2 µM
CCc1nc(NC(C)C)c2cnn(-c3ccccc3)c2n1	13.3 mm	13.3 mm	13.6 mm	13.6 mm	100%	96.4%	83.3%	40%	38 µM	> 100 µM	> 100 µM
CCCCNc1nc(CC)nc2c1cnn2-c1ccccc1	12.7 mm	12.8 mm	13.3 mm	13 mm	100%	96.5%	84.8%	-62.5%	2.02 µM	> 100 µM	32 µM
c1ccc(-n2ncc3c(NCc4ccco4)ncnc32)cc1	12.8 mm	13.6 mm	13 mm	13.6 mm	100%	97.5%	92.3%	51.7%	> 100 µM		> 100 µM
CCN(CC)c1nc(C)nc2c1cnn2-c1ccccc1	13.6 mm	13.1 mm	13.7 mm	13.3 mm	100%	100%	100%	61.8%	> 100 µM	> 100 µM	> 100 µM
COc1cccc2c1C(=O)c1c(O)c3c(c(O)c1C2=O)C[C@@](O)(C(=O)CO)C[C@@H]3O[C@H]1C[C@H](N)[C@H](O)[C@H](C)O1 [DOXORUBICIN]					-24%	-62.5%	-64.2%	-70.7%	< 0.1 µM		< 0.1 µM
